From patent US9850251B2, “Imidazole derivative used as antiviral agent and use therof in preparation of medicament” (priority 2013, dated 2017)
pEC50: −log10 of the molar value.

Experiments:
[1] = system: RSV respiratory tract virus (A long strain); assay: RSV long CPE assay (cytopathic effect assay), EC50; type: cell-based; conditions: human respiratory syncytial virus, HEp-2, 120 h; Hep2 cells infected with RSV A long strain, 5 days, CCK-8 readout
Procedure: (§1) Detect EC50 and CC50 values of anti RSV respiratory tract virus compounds through the cytopathic effect assay.
Virus strain: RSV respiratory tract virus (A long strain)
(§2) The cell plate was centrifugated (300 rpm) to make the cells adherent to the wall, placed into a 37° C., 5% CO2 incubator overnight.
(§3) 1) the compound in 100% DMSO underwent a semi logarithmic dilution, then was added to the cell plate with a Echo liquid handler. Ensure that the final concentration of DMSO was 1%;
(§4) 2) Cell-control hole: no compound and viruse were added; virus-control hole: no compound was added.
dilute RSV viruses to 100 TCID50/30 μL with medium cultured with 4° C. cells, and then add the diluted viruses to a cell plate (30 μL/hole) with Multidrop® automatic liquid distributor, and then placed into a 37° C., 5% CO2 culture incubator for 5 days.
1) after 5 days, observe the pathological change in each hole.
(§5) 2) add CCK-8 (Dojindo-CK04-20, 6 μL/hole) to 384 well plate with Multidrop® automatic liquid distributor;
(§6) 3) place the plate at a 37° C., 5% CO2 culture incubator for 3˜4 h, read the absorbance value with SPECTRA max 340PC_Molecular device at 450 nm and 630 nm;

[2] = RSV long CPE assay (cytopathic effect assay), CC50 toxicity in vitro; type: cell-based; conditions: human, Hep2 cells, CCK-8 readout, top concentration 100 μM
Procedure: as §1, §2, §3, §4, §5, §6

Row | Compound | pEC50 [1] | CC50 at 5 days [2] [nM] | CC50 ([2]; 5 days) [nM]
1 | CC(C)OC(=O)N1CC2(C1)C(=O)N(Cc1nc3c(n1CCCCO)CCCC3)c1ccccc12 [Embodiment 62, Isopropyl 1′-((1-(4-hydroxybutyl)-4,5,6,7-tetrahydro-1H-benzo[d]imidazol-2-yl)methyl)-2′-oxospiro[azetidine-3,3′-indoline]-1-carboxylate] | > 7.00 | > 100000 | 
2 | O=C1N(Cc2nc3c(n2CCCCO)CCCC3)c2ccccc2C12CC2 [Embodiment 63, 1′-((1-(4-Hydroxybutyl)-4,5,6,7-tetrahydro-1H-benzo[d]imidazol-2-yl)methyl)spiro[cyclopropane-1,3′-indoline]-2′-one] | > 7.00 | > 100000 | 
3 | CC(C)OC(=O)N1CC2(C1)C(=O)N(Cc1nc3c(n1CCCC(F)F)CCCC3)c1ccccc12 [Embodiment 64, Isopropyl 1′-((1-(4,4-difluorobutyl)-4,5,6,7-tetrahydro-1H-benzo[d]imidazol-2-yl)methyl)-2′-oxospiro[azetidine-3,3′-indoline]-1-carboxylate] | > 7.00 | > 100000 | 
4 | CC(C)OC(=O)N1CC2(C1)C(=O)N(Cc1nc3c(n1CCCC(F)(F)F)CCCC3)c1ccccc12 [Embodiment 65, Isopropyl 2′-oxo-1′-((1-(4,4,4-trifluorobutyl)-4,5,6,7-tetrahydro-1H-benzo[d]imidazol-2-yl)methyl)spiro[azetidine-3,3′-indoline]-1-carboxylate] | > 7.00 | > 100000 | 
5 | CC(C)OC(=O)N1CC2(C1)C(=O)N(Cc1nc3c(n1CC(F)(F)CCF)CCCC3)c1ccccc12 [Embodiment 66, Isopropyl 2′-oxo-1′-((1-(2,2,4-trifluorobutyl)-4,5,6,7-tetrahydro-1H-benzo[d]imidazol-2-yl)methyl)spiro[azetidine-3,3′-indoline]-1-carboxylate] | > 7.00 | > 100000 | 
6 | CCC(F)(F)Cn1c(CN2C(=O)C3(CN(C(=O)OC(C)C)C3)c3ccccc32)nc2c1CCCC2 [Embodiment 67, Isopropyl 1′-((1-(2,2-difluorobutyl)-4,5,6,7-tetrahydro-1H-benzo[d]imidazol-2-yl)methyl)-2′-oxospiro[azetidine-3,3′-indoline]-1-carboxylate] | 6.00 to 7.00 | > 100000 | 
7 | CC(C)OC(=O)N1CC2(C1)C(=O)N(Cc1nc3c(n1CC(=O)C(C)C)CCCC3)c1ccccc12 [Embodiment 68, Isopropyl 1′-((1-(3-methyl-2-oxobutyl)-4,5,6,7-tetrahydro-1H-benzo[d]imidazol-2-yl)methyl)-2′-oxospiro[azetidine-3,3′-indoline]-1-carboxylate] | 6.00 to 7.00 | > 100000 | 
8 | CC(C)OC(=O)N1CC2(C1)C(=O)N(Cc1nc3c(n1CC(F)(F)C(C)C)CCCC3)c1ccccc12 [Embodiment 69, Isopropyl 1′-((1-(2,2-difluoro-3-methylbutyl)-4,5,6,7-tetrahydro-1H-benzo[d]imidazol-2-yl)methyl)-2′-oxospiro[azetidine-3,3′-indoline]-1-carboxylate] | > 7.00 | > 100000 | 
9 | CC(C)OC(=O)N1CC2(C1)C(=O)N(Cc1nc3c(n1/C=C(\F)C(C)C)CCCC3)c1ccccc12 [Embodiment 70, Isopropyl (Z)-1′-((1-(2-fluoro-3-methylbut-1-en-1-yl)-4,5,6,7-tetrahydro-1H-benzo[d]imidazol-2-yl)methyl)-2′-oxospiro[azetidine-3,3′-indoline]-1-carboxylate] | > 7.00 | > 100000 | 
10 | CC(C)=C(F)Cn1c(CN2C(=O)C3(CN(C(=O)OC(C)C)C3)c3ccccc32)nc2c1CCCC2 [Embodiment 71, Isopropyl 1′-((1-(2-fluoro-3-methylbut-2-en-1-yl)-4,5,6,7-tetrahydro-1H-benzo[d]imidazol-2-yl)methyl)-2′-oxospiro[azetidine-3,3′-indoline]-1-carboxylate] | 6.00 to 7.00 | > 100000 | 
11 | CCOC(=O)N1CC2(C1)C(=O)N(Cc1nc3c(n1CCC(C)C)CCCC3)c1ccccc12 [Embodiment 72, Ethyl 1′-((1-isopentyl-4,5,6,7-tetrahydro-1H-benzo[d]imidazol-2-yl)methyl)-2′-oxospiro[azetidine-3,3′-indoline]-1-carboxylate] | > 7.00 | > 100000 | 
12 | CCOC(=O)N1CC2(C1)C(=O)N(Cc1nc3c(n1CCCCF)CCCC3)c1ccccc12 [Embodiment 73] | > 7.00 | > 100000 | 
13 | CCOC(=O)N1CC2(C1)C(=O)N(Cc1nc3c(n1CCCC#N)CCCC3)c1ccccc12 [Embodiment 74, Ethyl 1′-((1-(3-cyanopropyl)-4,5,6,7-tetrahydro-1H-benzo[d]imidazol-2-yl)methyl)-2′-oxospiro[azetidine-3,3′-indoline]-1-carboxylate] | > 7.00 | > 100000 | 
14 | CCOC(=O)N1CC2(C1)C(=O)N(Cc1nc3c(n1CCCC(F)(F)F)CCCC3)c1ccccc12 [Embodiment 75, Ethyl 2′-oxo-1′-((1-(4,4,4-trifluorobutyl)-4,5,6,7-tetrahydro-1H-benzo[d]imidazol-2-yl)methyl)spiro[azetidine-3,3′-indoline]-1-carboxylate] | > 7.00 | > 100000 | 
15 | CCOC(=O)N1CC2(C1)C(=O)N(Cc1nc3c(n1CCCS(C)(=O)=O)CCCC3)c1ccccc12 [Embodiment 76, Ethyl 1′-((1-(3-(methylsulfonyl)propyl)-4,5,6,7-tetrahydro-1H-benzo[d]imidazol-2-yl)methyl)-2′-oxospiro[azetidine-3,3′-indoline]-1-carboxylate] | > 7.00 | > 100000 | 
16 | CC(C)OC(=O)N1CC2(C1)C(=O)N(Cc1nc3c(n1CCCCO)CCCC3)c1ccc(Br)cc12 [Embodiment 78, Isopropyl 5′-bromo-1′-((1-(4-hydroxybutyl)-4,5,6,7-tetrahydro-1H-benzo[d]imidazol-2-yl)methyl)-2′-oxospiro[azetidine-3,3′-indoline]-1-carboxylate] | > 7.00 | > 100000 | 
17 | CC(C)OC(=O)N1CC2(C1)C(=O)N(Cc1nc3c(n1CCCC(F)(F)F)CCCC3)c1ccc(Br)cc12 [Embodiment 79, Isopropyl 5′-bromo-2′-oxo-1′-((1-(4,4,4-trifluorobutyl)-4,5,6,7-tetrahydro-1H-benzo[d]imidazol-2-yl)methyl)spiro[azetidine-3,3′-indoline]-1-carboxylate] | > 7.00 | > 100000 | 
18 | CC(C)OC(=O)N1CC2(C1)C(=O)N(Cc1nc3c(n1CCCC(F)(F)F)CCCC3)c1ccc(Cl)cc12 [Embodiment 80, Isopropyl 5′-chloro-2′-oxo-1′-((1-(4,4,4-trifluorobutyl)-4,5,6,7-tetrahydro-1H-benzo[d]imidazol-2-yl)methyl)spiro[azetidine-3,3′-indoline]-1-carboxylate] | > 7.00 | > 100000 | 
19 | CC(C)OC(=O)N1CC2(C1)C(=O)N(Cc1nc3c(n1CCCC(F)(F)F)CCCC3)c1cc(Cl)ccc12 [Embodiment 81, Isopropyl 6′-chloro-2′-oxo-1′-((1-(4,4,4-trifluorobutyl)-4,5,6,7-tetrahydro-1H-benzo[d]imidazol-2-yl)methyl)spiro[azetidine-3,3′-indoline]-1-carboxylate] | > 7.00 | > 100000 | 
20 | CC(C)OC(=O)N1CC2(C1)C(=O)N(Cc1nc3c(n1CCCC(F)(F)F)CCCC3)c1cc(F)ccc12 [Embodiment 82, Isopropyl 6′-fluoro-2′-oxo-1′-((1-(4,4,4-trifluorobutyl)-4,5,6,7-tetrahydro-1H-benzo[d]imidazol-2-yl)methyl)spiro[azetidine-3,3′-indoline]-1-carboxylate] | > 7.00 | > 100000 | 
21 | CCOC(=O)N1CC2(C1)C(=O)N(Cc1nc3c(n1CCCC(F)(F)F)CCCC3)c1cc(F)ccc12 [Embodiment 83, Ethyl 6′-fluoro-2′-oxo-1′-((1-(4,4,4-trifluorobutyl)-4,5,6,7-tetrahydro-1H-benzo[d]imidazol-2-yl)methyl)spiro[azetidine-3,3′-indoline]-1-carboxylate] | > 7.00 | > 100000 | 
22 | O=C(C1CC1)N1CC2(C1)C(=O)N(Cc1nc3c(n1CCCC(F)(F)F)CCCC3)c1cc(F)ccc12 [Embodiment 84, 1-(Cyclopropanecarbonyl)-6′-fluoro-1′-((1-(4,4,4-trifluorobutyl)-4,5,6,7-tetrahydro-1H-benzo[d]imidazol-2-yl)methyl)spiro[azetidine-3,3′-indoline]-2′-one] | > 7.00 | > 100000 | 
23 | CC(C)OC(=O)N1CC2(C1)C(=O)N(Cc1nc3c(n1CCCCO)CCCC3)c1cccc(Cl)c12 [Embodiment 85, Isopropyl 4′-chloro-1′-((1-(4-hydroxybutyl)-4,5,6,7-tetrahydro-1H-benzo[d]imidazol-2-yl)methyl)-2′-oxospiro[azetidine-3,3′-indoline]-1-carboxylate] | > 7.00 |  | > 100000
24 | CCOC(=O)N1CC2(C1)C(=O)N(Cc1nc(CC)c(CC)n1CCCCO)c1ccccc12 [Embodiment 101, Ethyl 1′-((4,5-diethyl-1-(4-hydroxybutyl)-1H-imidazol-2-yl)methyl)-2′-oxospiro[azetidine-3,3′-indoline]-1-carboxylate] |  | > 100000 | 
